Data taken from ChEMBL document CHEMBL4138123, “Design, synthesis and biological evaluation of novel pyrazolochalcones as potential modulators of PI3K/Akt/mTOR pathway and inducers of apoptosis in breast cancer cells” (Eur J Med Chem, 2017).

Experiments:
Type in all cases: functional
M14 [1] = assay: Cytotoxicity against human M14 cells assessed as cell growth at 10 uM after 48 hrs by sulforhodamine B assay relative to control; conditions: M14, 48 h, read-out: Activity
786-0 [2] = assay: Cytotoxicity against human 786-0 cells assessed as growth inhibition after 48 hrs by sulforhodamine B assay; conditions: 786-0, 48 h
SF-539 = assay: Cytotoxicity against human SF539 cells assessed as cell growth at 0.01 uM after 48 hrs by sulforhodamine B assay relative to control; conditions: SF-539, 48 h, read-out: Activity
CCRF-CEM = assay: Cytotoxicity against human CCRF-CEM cells assessed as cell growth at 100 uM after 48 hrs by sulforhodamine B assay relative to control; conditions: read-out: Activity
NCI-H522 [3] = assay: Cytotoxicity against human NCI-H522 cells assessed as cell growth at 1 uM after 48 hrs by sulforhodamine B assay relative to control; conditions: NCI-H522, 48 h, read-out: Activity
A549 [4] = assay: Cytotoxicity against human A549/ATCC cells assessed as growth inhibition after 48 hrs by sulforhodamine B assay; conditions: A549, 48 h
DU-145 = assay: Cytotoxicity against human DU145 cells assessed as cell growth at 10 uM after 48 hrs by sulforhodamine B assay relative to control; conditions: DU-145, 48 h, read-out: Activity
U-251 [5] = assay: Cytotoxicity against human U251 cells assessed as cell growth at 0.01 uM after 48 hrs by sulforhodamine B assay relative to control; conditions: U-251, 48 h, read-out: Activity
IGROV-1 = assay: Cytotoxicity against human IGROV1 cells assessed as cell growth at 1 uM after 48 hrs by sulforhodamine B assay relative to control; conditions: IGROV-1, 48 h, read-out: Activity
RXF 393 [6] = assay: Cytotoxicity against human RXF393 cells assessed as growth inhibition after 48 hrs by sulforhodamine B assay; conditions: RXF 393, 48 h
Hs-578T [7] = assay: Cytotoxicity against human Hs 578T cells assessed as cell growth at 100 uM after 48 hrs by sulforhodamine B assay relative to control; conditions: read-out: Activity
HCT-15 [8] = assay: Cytotoxicity against human HCT15 cells assessed as cell growth at 10 uM after 48 hrs by sulforhodamine B assay relative to control; conditions: HCT-15, 48 h, read-out: Activity
OVCAR-3 = assay: Cytotoxicity against human OVCAR3 cells assessed as cell growth at 10 uM after 48 hrs by sulforhodamine B assay relative to control; conditions: OVCAR-3, 48 h, read-out: Activity
Hs-578T [9] = assay: Cytotoxicity against human Hs 578T cells assessed as cell growth at 10 uM after 48 hrs by sulforhodamine B assay relative to control; conditions: read-out: Activity
HCT-15 [10] = assay: Cytotoxicity against human HCT15 cells assessed as cell growth at 0.01 uM after 48 hrs by sulforhodamine B assay relative to control; conditions: HCT-15, 48 h, read-out: Activity
RXF 393 [11] = assay: Cytotoxicity against human RXF393 cells assessed as cell growth at 0.1 uM after 48 hrs by sulforhodamine B assay relative to control; conditions: RXF 393, 48 h, read-out: Activity
U-251 [12] = assay: Cytotoxicity against human U251 cells assessed as cell growth at 0.1 uM after 48 hrs by sulforhodamine B assay relative to control; conditions: U-251, 48 h, read-out: Activity
SF-268 = assay: Cytotoxicity against human SF268 cells assessed as cell growth at 100 uM after 48 hrs by sulforhodamine B assay relative to control; conditions: SF-268, 48 h, read-out: Activity
SN12C = assay: Cytotoxicity against human SN12C cells assessed as cell growth at 0.01 uM after 48 hrs by sulforhodamine B assay relative to control; conditions: read-out: Activity
COLO 205 = assay: Cytotoxicity against human COLO205 cells assessed as cell growth at 100 uM after 48 hrs by sulforhodamine B assay relative to control; conditions: COLO 205, 48 h, read-out: Activity
A549 [13] = assay: Cytotoxicity against human A549/ATCC cells assessed as cell growth at 0.01 uM after 48 hrs by sulforhodamine B assay relative to control; conditions: A549, 48 h, read-out: Activity
MDA-MB-468 = assay: Cytotoxicity against human MDA-MB-468 cells assessed as cell growth at 0.01 uM after 48 hrs by sulforhodamine B assay relative to control; conditions: MDA-MB-468, 48 h, read-out: Activity
NCI-H522 [14] = assay: Cytotoxicity against human NCI-H522 cells assessed as cell growth at 0.1 uM after 48 hrs by sulforhodamine B assay relative to control; conditions: NCI-H522, 48 h, read-out: Activity
OVCAR-4 = assay: Cytotoxicity against human OVCAR4 cells assessed as growth inhibition after 48 hrs by sulforhodamine B assay; conditions: OVCAR-4, 48 h
OVCAR-5 = assay: Cytotoxicity against human OVCAR5 cells assessed as cell growth at 10 uM after 48 hrs by sulforhodamine B assay relative to control; conditions: OVCAR-5, 48 h, read-out: Activity
NCI-H460 [15] = assay: Cytotoxicity against human NCI-H460 cells assessed as growth inhibition after 48 hrs by sulforhodamine B assay; conditions: NCI-H460, 48 h
NCI-H460 [16] = assay: Cytotoxicity against human NCI-H460 cells assessed as cell growth at 10 uM after 48 hrs by sulforhodamine B assay relative to control; conditions: NCI-H460, 48 h, read-out: Activity
786-0 [17] = assay: Cytotoxicity against human 786-0 cells assessed as cell growth at 0.1 uM after 48 hrs by sulforhodamine B assay relative to control; conditions: 786-0, 48 h, read-out: Activity
SR = assay: Cytotoxicity against human SR cells assessed as growth inhibition after 48 hrs by sulforhodamine B assay
ACHN = assay: Cytotoxicity against human ACHN cells assessed as cell growth at 0.1 uM after 48 hrs by sulforhodamine B assay relative to control; conditions: read-out: Activity
HT-29 = assay: Cytotoxicity against human HT-29 cells assessed as cell growth at 100 uM after 48 hrs by sulforhodamine B assay relative to control; conditions: HT-29, 48 h, read-out: Activity
HL-60(TB) = assay: Cytotoxicity against human HL-60(TB) cells assessed as cell growth at 0.01 uM after 48 hrs by sulforhodamine B assay relative to control; conditions: HL-60, 48 h, read-out: Activity
M14 [18] = assay: Cytotoxicity against human M14 cells assessed as cell growth at 100 uM after 48 hrs by sulforhodamine B assay relative to control; conditions: M14, 48 h, read-out: Activity
NCI-H226 = assay: Cytotoxicity against human NCI-H226 cells assessed as cell growth at 1 uM after 48 hrs by sulforhodamine B assay relative to control; conditions: NCI-H226, 48 h, read-out: Activity
SW-620 = assay: Cytotoxicity against human SW620 cells assessed as cell growth at 1 uM after 48 hrs by sulforhodamine B assay relative to control; conditions: SW-620, 48 h, read-out: Activity
SK-MEL-5 = assay: Cytotoxicity against human SK-MEL-5 cells assessed as cell growth at 1 uM after 48 hrs by sulforhodamine B assay relative to control; conditions: SK-MEL-5, 48 h, read-out: Activity

Question: What does the source list for `COc1cc2c(cc1OC)C(=O)/C(=C/c1cc(-c3ccc4c(c3)OCO4)n[nH]1)C2`?
Answer: growth at 10 µM (M14 [1]): -87%; GI50 (786-0 [2]): 1.61 µM; LC50 (786-0 [2]): 5.54 µM; TGI (786-0 [2]): 2.99 µM; growth at 0.01 µM (SF-539): 100%; growth at 100 µM (CCRF-CEM): -38%; growth at 1 µM (NCI-H522 [3]): -6%; GI50 (A549 [4]): 1.96 µM; LC50 (concentration giving 50% net cell kill) (A549 [4]): 37.1 µM; TGI (A549 [4]): 5.45 µM; growth at 10 µM (DU-145): -92%; growth at 0.01 µM (U-251 [5]): 97%; growth at 1 µM (IGROV-1): 86%; GI50 (RXF 393 [6]): 1.54 µM; LC50 (concentration killing 50% of cells) (RXF 393 [6]): 6.62 µM; TGI (RXF 393 [6]): 3.19 µM; growth at 100 µM (Hs-578T [7]): -15%; growth at 10 µM (HCT-15 [8]): -69%; growth at 10 µM (OVCAR-3): -92%; growth at 10 µM (Hs-578T [9]): -9%; growth at 0.01 µM (HCT-15 [10]): 95%; growth at 0.1 µM (RXF 393 [11]): 82%; growth at 0.1 µM (U-251 [12]): 95%; growth at 100 µM (SF-268): -73%; growth at 0.01 µM (SN12C): 95%; growth at 100 µM (COLO 205): -88%; growth at 0.01 µM (A549 [13]): 98%; growth at 0.01 µM (MDA-MB-468): 93%; growth at 0.1 µM (NCI-H522 [14]): 89%; GI50 (OVCAR-4): 1.11 µM; LC50 (OVCAR-4): 5 µM; TGI (OVCAR-4): 2.36 µM; growth at 10 µM (OVCAR-5): -92%; GI50 (NCI-H460 [15]): 1.68 µM; LC50 (NCI-H460 [15]): 8.57 µM; TGI (NCI-H460 [15]): 3.79 µM; growth at 10 µM (NCI-H460 [16]): -59%; growth at 0.1 µM (786-0 [17]): 98%; GI50 (SR): 0.62 µM; TGI (SR): 4.11 µM; CC50 (SR; read-out: LC50 (the source's name)): > 100 µM; growth at 0.1 µM (ACHN): 100%; growth at 100 µM (HT-29): -70%; growth at 0.01 µM (HL-60(TB)): 90%; growth at 100 µM (M14 [18]): -80%; growth at 1 µM (NCI-H226): 79%; growth at 1 µM (SW-620): 66%; growth at 1 µM (SK-MEL-5): 92%
